Test results reported in the NIST ThermoML archive (doi:10.1021/acs.jced.6b00269).

Settings: for Normal melting temperature: Crystal, DTA; for viscosity / mass density: 101.33 kPa, Liquid; for viscosity: Cone and plate viscometry; for mass density: Vibrating tube method; for Glass transition temperature: DSC

CCC=C[P+](CC)(CC)CC.O=S(=O)([N-]S(=O)(=O)C(F)(F)F)C(F)(F)F
Settings	Normal melting temperature [°C]
–	49

CCCCCCCCCCCCCC[P+](CCCCCC)(CCCCCC)CCCCCC.O=S(=O)([N-]S(=O)(=O)C(F)(F)F)C(F)(F)F
Settings	Glass transition temperature [°C]	mass density [kg/m3]	viscosity [mPa·s]
–	-82	–	–
278.15 K	–	–	1210
283.15 K	–	1076.1	841
288.15 K	–	1072.4	594
293.15 K	–	1068.8	430
295.15 K	–	1067.3	–
298.15 K	–	1065.1	318
303.15 K	–	1061.5	241
308.15 K	–	1057.9	185
313.15 K	–	1054.4	145
318.15 K	–	1050.8	115
323.15 K	–	1047.3	92
328.15 K	–	1043.7	76
333.15 K	–	1040.1	63
338.15 K	–	1036.6	–
343.15 K	–	1033	–
348.15 K	–	1029.5	–
353.15 K	–	1026	–

CCCCCCCCSC(N(C)C)=[N+](C)C.O=S(=O)([N-]S(=O)(=O)C(F)(F)F)C(F)(F)F
Settings	Glass transition temperature [°C]	mass density [kg/m3]	viscosity [mPa·s]
–	-82	–	–
278.15 K	–	–	356
283.15 K	–	1309.6	254
288.15 K	–	1305.2	186
293.15 K	–	1301	140
295.15 K	–	1299.3	–
298.15 K	–	1296.7	108
303.15 K	–	1292.4	85
308.15 K	–	1288.2	69
313.15 K	–	1284	56
318.15 K	–	1279.7	–
323.15 K	–	1275.5	–
328.15 K	–	1271.3	–
333.15 K	–	1267.1	–
338.15 K	–	1262.9	–
343.15 K	–	1258.7	–
348.15 K	–	1254.6	–
353.15 K	–	1250.4	–

CCCCCCSC(N(C)C)=[N+](C)C.O=S(=O)([N-]S(=O)(=O)C(F)(F)F)C(F)(F)F
Settings	Glass transition temperature [°C]	mass density [kg/m3]	viscosity [mPa·s]
–	-82	–	–
278.15 K	–	–	268
283.15 K	–	1352.2	193
288.15 K	–	1347.8	143
293.15 K	–	1343.4	109
295.15 K	–	1341.6	–
298.15 K	–	1339	85
303.15 K	–	1334.6	68
308.15 K	–	1330.2	55
313.15 K	–	1325.8	–
318.15 K	–	1321.5	–
323.15 K	–	1317.1	–
328.15 K	–	1312.8	–
333.15 K	–	1308.5	–
338.15 K	–	1304.2	–
343.15 K	–	1299.8	–
348.15 K	–	1295.6	–
353.15 K	–	1291.3	–

CCCCCC[n+]1ccn(C)c1.O=S(=O)([N-]S(=O)(=O)C(F)(F)F)C(F)(F)F
Settings	mass density [kg/m3]	viscosity [mPa·s]
278.15 K	–	203
283.15 K	1386.6	150
288.15 K	1382.1	113
293.15 K	1377.5	87
295.15 K	1375.7	–
298.15 K	1372.9	68
303.15 K	1368.4	55
308.15 K	1363.8	–
313.15 K	1359.3	–
318.15 K	1354.8	–
323.15 K	1350.3	–
328.15 K	1345.8	–
333.15 K	1341.3	–
338.15 K	1336.8	–
343.15 K	1332.4	–
348.15 K	1327.9	–
353.15 K	1323.5	–

CCCC[S+]1CCCC1.O=S(=O)([N-]S(=O)(=O)C(F)(F)F)C(F)(F)F
Settings	Glass transition temperature [°C]	mass density [kg/m3]	viscosity [mPa·s]
–	-83	–	–
278.15 K	–	–	284
283.15 K	–	1469	206
288.15 K	–	1464.3	153
293.15 K	–	1459.7	117
295.15 K	–	1457.8	–
298.15 K	–	1455	91
303.15 K	–	1450.4	73
308.15 K	–	1445.7	59
313.15 K	–	1441.1	–
318.15 K	–	1436.5	–
323.15 K	–	1431.9	–
328.15 K	–	1427.3	–
333.15 K	–	1422.7	–
338.15 K	–	1418.2	–
343.15 K	–	1413.6	–
348.15 K	–	1409.1	–
353.15 K	–	1404.6	–

CCOCc1n(CC)cc[n+]1C.O=S(=O)([N-]S(=O)(=O)C(F)(F)F)C(F)(F)F
Settings	Glass transition temperature [°C]	viscosity [mPa·s]
–	-78	–
278.15 K	–	207
283.15 K	–	149
288.15 K	–	111
293.15 K	–	85
298.15 K	–	66
303.15 K	–	53

CC[P+](CC)(CC)COCCOC.Cc1ncc([N+](=O)[O-])[n-]1
Settings	Glass transition temperature [°C]	viscosity [mPa·s]
–	-75	–
278.15 K	–	567
283.15 K	–	381
288.15 K	–	264
293.15 K	–	189
298.15 K	–	140
303.15 K	–	106
308.15 K	–	83
313.15 K	–	65
318.15 K	–	53

CC[P+](CC)(CC)COCCOC.O=S(=O)([N-]S(=O)(=O)C(F)(F)F)C(F)(F)F
Settings	mass density [kg/m3]	viscosity [mPa·s]
278.15 K	–	84
283.15 K	1373.9	65
288.15 K	1369.4	51
293.15 K	1364.8	–
295.15 K	1363	–
298.15 K	1360.3	–
303.15 K	1355.7	–
308.15 K	1351.2	–
313.15 K	1346.8	–
318.15 K	1342.3	–
323.15 K	1337.9	–
328.15 K	1333.4	–
333.15 K	1329	–
338.15 K	1324.6	–
343.15 K	1320.2	–
348.15 K	1315.8	–
353.15 K	1311.5	–

CC[P+](CC)(CC)COCCOC.O=[N+]([O-])c1cn[n-]c1
Settings	Glass transition temperature [°C]	Normal melting temperature [°C]	mass density [kg/m3]	viscosity [mPa·s]
–	-76	-15	–	–
278.15 K	–	–	–	309
283.15 K	–	–	1149.2	216
288.15 K	–	–	1145.8	156
293.15 K	–	–	1142.4	116
295.15 K	–	–	1141	–
298.15 K	–	–	1139	88
303.15 K	–	–	1135.6	69
308.15 K	–	–	1132.2	55
313.15 K	–	–	1128.9	–
318.15 K	–	–	1125.5	–
323.15 K	–	–	1122.2	–
328.15 K	–	–	1118.9	–
333.15 K	–	–	1115.6	–
338.15 K	–	–	1112.3	–
343.15 K	–	–	1109.1	–
348.15 K	–	–	1105.8	–
353.15 K	–	–	1102.6	–
